Non-standard residues stand in square brackets, D forms with d. Residues, ends and D or L forms follow the SMILES beside them. *: point of attachment. Sta = CC(C)C[C@H](N)[C@@H](O)CC(=O)O; Isovaleryl = CC(C)CC(=O)*

Data on nine molecules can be found in patent publication US6413521B1, “Helminth parasite antigen with aminopeptidase-like activity” (The Barbraham Institute, priority 1993, dated 2002).

Assay [1] has as its system Con A Oo12 ApM activity. Put plainly: Con A O12 aminopeptidase inhibition assay, ApM (leucine p-nitroanilide). Format: biochemical, Ostertagia ostertagi. As to the method: (§1) The effect of various protease inhibitors on Oo12 activity was assayed and included amastatin (aminopeptidase inhibitor), actinonin (aminopeptidase inhibitor), bestatin (aminopeptidase inhibitor), EDTA (metallo-protease inhibitor), E64 (cysteine protease inhibitor), pepstatin (aspartic protease inhibitor), 1,10 phenanthroline (metallo-protease inhibitor) and 3,4-dichloroisocoumarin (DCI, serine protease inhibitor). 10 μl Con A Oo12 and 100 μl 50 mM Mops buffer, pH 7.0 was added to a microtitre plate well and 2-4 μl of enzyme inhibitor added, to give a final concentration of 0.5 mM and 1 mM actinonin, 50 μM and 100 μM bestatin, 1 mM and 15 mM EDTA, 50 μM and 100 μM E64, 10 and 50 μM pepstatin, 1 mM and 10 mM 1,10 phenanthroline, 100 μM and 500 μM DCI. The plate was preincubated at 37° C. for 20-28 minutes and then assayed for ApM and ApA activity. 100 μl 2 mM leucine p-nitroanilide (ApM) or α-glutamic p-nitroanilide (ApA)/Mops was added per well and the optical density (OD) at 405 nm read using an Elisa plate reader. The plates were incubated at 37° C. for 45-48 minutes and the final OD reading was then taken. The OD change per minute per 10 μl sample was calculated. All assays were carried out in triplicate.

The test system of assay [2] is Con A Oo12 ApA activity. Nature of the assay: Con A O12 aminopeptidase inhibition assay, ApA (α-glutamic p-nitroanilide). Format: biochemical, Ostertagia ostertagi. As to the method:
as §1

Assay [3] has as its system Ostertagia ostertagi PHP. Nature of the assay: Protease digestion of Oo PhP, release of ApM activity. It is filed as biochemical. As to the method: Method: Oo PhP was resuspended in 50 mM Mops buffer, pH 7.0 to give 0.1 mg pellet/ml. 50 μl aliquots were prewarmed at 37° C. for 39 minutes. 5 μl of either α-Chymotrypsin (Sigma type VII, 50 units/mg solid), Subtilisin (Sigma type VIII, 11.6 units/mg solid), Trypsin (Sigma, TPCK-treated type XIII, 9700 units/mg solid) or Thermolysin (Sigma, 37 units/mg solid dissolved in 1 mM KCl/2 mM CaCl) was added to give final protease concentrations of 5, 50, 500, 1000 and 2000 μg/ml. Aliquots containing chymotrypsin, trypsin or subtilisin were then incubated at 37° C. for 1 hour and protease activity inhibited by the addition of 1 μl 10 mM 3,4-dichloroisocoumarin (DCI). Aliquots containing thermolysin were incubated for 2 hours at 37° C. and activity inhibited by the addition of 1 μl 0.25M EDTA. Samples were spun at high speed on the airfuge at 20 psi for 20 minutes at room temperature. 5 μl samples were assay for ApM activity, using the microtitre plate method, over 29.6 minutes with methionine-pNA as substrate.

On to `CC(C)C[C@H](NC(=O)[C@H]1O[C@@H]1C(=O)O)C(=O)NCCCCN=C(N)N` [E64], for which, in assay [1] (inhibitor 50 μM), the Leu-pNA enzyme activity is listed as 1.241 nmoles/min/10 μl ConA O12 and the Leu-pNA enzyme inhibition is on record as 0 (+1%). In assay [1] (inhibitor 100 μM), the Leu-pNA enzyme activity is on record as 1.278 nmoles/min/10 μl ConA O12 and the Leu-pNA enzyme inhibition is given as 0 (+4%). Besides, in assay [2] (inhibitor 50 μM), the α-Glu-pNA enzyme activity amounted to 0.323 nmoles/min/10 μl ConA O12 and the α-Glu-pNA enzyme inhibition was found to be 3%. For the same molecule, in assay [2] (inhibitor 100 μM), the α-Glu-pNA enzyme activity was determined as 0.327 nmoles/min/10 μl ConA O12 and the α-Glu-pNA enzyme inhibition came out at 2%.
With `c1cnc2c(c1)ccc1cccnc12` [1,10 Phenanthroline, 1,10 phenanthroline], the “inhibitory effect on aminopeptidase activity” value in assay [1] (10 mM) is reported as “greatest inhibition”. In assay [1] (inhibitor 1 mM), the Leu-pNA enzyme activity was determined as 0.005 nmoles/min/10 μl ConA O12 and the Leu-pNA enzyme inhibition turned out to be 99%. In assay [1] (inhibitor 10 mM), this molecule registered a Leu-pNA enzyme activity of 0 nmoles/min/10 μl ConA O12 and a Leu-pNA enzyme inhibition of 100%. For the same molecule, in assay [2] (inhibitor 1 mM), the α-Glu-pNA enzyme activity is recorded as 0 nmoles/min/10 μl ConA O12 and the α-Glu-pNA enzyme inhibition stood at 100%. In addition, in assay [2] (inhibitor 10 mM), the α-Glu-pNA enzyme activity is given as 0 nmoles/min/10 μl ConA O12 and the α-Glu-pNA enzyme inhibition was 100%.
For the molecule `O=c1oc(Cl)c(Cl)c2ccccc12` [DCI, 3,4-dichloroisocoumarin], in assay [1] (inhibitor 100 μM), the Leu-pNA enzyme activity amounted to 1.229 nmoles/min/10 μl ConA O12 and the Leu-pNA enzyme inhibition is 0%. In assay [1] (inhibitor 500 μM), the Leu-pNA enzyme activity is 1.129 nmoles/min/10 μl ConA O12 and the Leu-pNA enzyme inhibition is reported as 8%. Further, in assay [2] (inhibitor 100 μM), the α-Glu-pNA enzyme activity is on record as 0.252 nmoles/min/10 μl ConA O12 and the α-Glu-pNA enzyme inhibition is given as 24%. Moreover, in assay [2] (inhibitor 500 μM), the α-Glu-pNA enzyme activity is on record as 0.216 nmoles/min/10 μl ConA O12 and the α-Glu-pNA enzyme inhibition worked out at 35%.
As for `CCCCC[C@H](CC(=O)NO)C(=O)N[C@H](C(=O)N1CCC[C@H]1CO)C(C)C` [Actinonin, actinonin], in assay [1] (inhibitor 0.5 mM), the Leu-pNA enzyme activity came to 0.621 nmoles/min/10 μl ConA O12 and the Leu-pNA enzyme inhibition amounted to 49%. Besides, in assay [1] (inhibitor 1 mM), the Leu-pNA enzyme activity came out at 0.448 nmoles/min/10 μl ConA O12 and the Leu-pNA enzyme inhibition is listed as 63%. Moreover, in assay [2] (inhibitor 0.5 mM), the α-Glu-pNA enzyme activity was 0.016 nmoles/min/10 μl ConA O12 and the α-Glu-pNA enzyme inhibition was found to be 95%. In assay [2] (inhibitor 1 mM), this molecule displayed a α-Glu-pNA enzyme activity of 0.029 nmoles/min/10 μl ConA O12 and a α-Glu-pNA enzyme inhibition of 91%.
Regarding `O=C(O)CN(CCN(CC(=O)O)CC(=O)O)CC(=O)O` [EDTA], the Leu-pNA enzyme activity was found to be 0.994 nmoles/min/10 μl ConA O12 in assay [1] (inhibitor 1 mM) and 0.784 nmoles/min/10 μl ConA O12 in assay [1] (inhibitor 15 mM). Also, the Leu-pNA enzyme inhibition turned out to be 19% in assay [1] (inhibitor 1 mM) and 36% in assay [1] (inhibitor 15 mM). For the same molecule, the values for the α-Glu-pNA enzyme activity in assay [2] (inhibitor 1 mM) and in assay [2] (inhibitor 15 mM) were 0.161 nmoles/min/10 μl ConA O12 and 0.112 nmoles/min/10 μl ConA O12, respectively. In addition, the α-Glu-pNA enzyme inhibition in assay [2] (inhibitor 1 mM) was 52%; in assay [2] (inhibitor 15 mM), 66%.
`CC(C)C[C@H](NC(=O)[C@@H](O)[C@H](N)Cc1ccccc1)C(=O)O` [Bestatin, bestatin]: the Leu-pNA enzyme activity in assay [1] (inhibitor 50 μM) came out at 0.045 nmoles/min/10 μl ConA O12; in assay [1] (inhibitor 100 μM) it was 0.022 nmoles/min/10 μl ConA O12. Further, the Leu-pNA enzyme inhibition in assay [1] (inhibitor 50 μM) was 96%; in assay [1] (inhibitor 100 μM) it was 98%. For the same molecule, the figures for the α-Glu-pNA enzyme activity in assay [2] (inhibitor 50 μM) and in assay [2] (inhibitor 100 μM) were 0.174 nmoles/min/10 μl ConA O12 and 0.119 nmoles/min/10 μl ConA O12, respectively. In addition, the values for the α-Glu-pNA enzyme inhibition in assay [2] (inhibitor 50 μM) and in assay [2] (inhibitor 100 μM) were 48% and 64%, respectively.
Regarding `CC(C)CC(=O)N[C@H](C(=O)N[C@H](C(=O)N[C@@H](CC(C)C)[C@@H](O)CC(=O)N[C@@H](C)C(=O)N[C@@H](CC(C)C)[C@@H](O)CC(=O)O)C(C)C)C(C)C` [Pepstatin, pepstatin] (Isovaleryl-VV[Sta]A[Sta]-OH), in assay [1] (inhibitor 10 μM), the Leu-pNA enzyme activity came out at 1.297 nmoles/min/10 μl ConA O12 and the Leu-pNA enzyme inhibition was 0 (+6%). In assay [1] (inhibitor 50 μM), the Leu-pNA enzyme activity was determined as 1.263 nmoles/min/10 μl ConA O12 and the Leu-pNA enzyme inhibition is reported as 0 (+3%). Moreover, in assay [2] (inhibitor 10 μM), the α-Glu-pNA enzyme activity is recorded as 0.326 nmoles/min/10 μl ConA O12 and the α-Glu-pNA enzyme inhibition was 2%. In assay [2] (inhibitor 50 μM), this molecule yielded a α-Glu-pNA enzyme activity of 0.315 nmoles/min/10 μl ConA O12 and a α-Glu-pNA enzyme inhibition of 6%.

B1: Thermolysin: protease, Sigma, 37 units/mg solid (protein, UniProt P00800 233-548, looked up)
Thermolysin: ITGTSTVGVGRGVLGDQKNINTTYSTYYYLQDNTRGNGIFTYDAKYRTTLPGSLWADADNQFFASYDAPAVDAHYYAGVTYDYYKNVHNRLSYDGNNAAIRSSVHYSQGYNNAFWNGSQMVYGDGDGQTFIPLSGGIDVVAHELTHAVTDYTAGLIYQNESGAINEAISDIFGTLVEFYANKNPDWEIGEDVYTPGISGDSLRSMSDPAKYGDPDHYSKRYTGTQDNGGVHINSGIINKAAYLISQGGTHYGVSVVGIGRDKLGKIFYRALTQYLTPTSNFSQLRAAAVQSATDLYGSTSQEVASVKQAFDAVGVK
For B1, the “Aminopeptidase M activity released by protease digestion, Met-pNA” value is 0.06 nmoles/min/5 μl high speed supernatant in assay [3] (5 μg protease/0.1 mg PHP/ml); 0.07 nmoles/min/5 μl high speed supernatant in assay [3] (50 μg protease/0.1 mg PHP/ml); 0.08 nmoles/min/5 μl high speed supernatant in assay [3] (500 μg protease/0.1 mg PHP/ml); 0.11 nmoles/min/5 μl high speed supernatant in assay [3] (1000 μg protease/0.1 mg PHP/ml); 0.19 nmoles/min/5 μl high speed supernatant in assay [3] (2000 μg protease/0.1 mg PHP/ml). The “release of ApM from the PhP” value in assay [3] (5-2000 μg/ml protease) is reported as “least effective”.

B2: Subtilisin: protease, Sigma type VIII, 11.6 units/mg solid (protein, UniProt P00780 106-379, looked up)
Subtilisin Carlsberg: AQTVPYGIPLIKADKVQAQGFKGANVKVAVLDTGIQASHPDLNVVGGASFVAGEAYNTDGNGHGTHVAGTVAALDNTTGVLGVAPSVSLYAVKVLNSSGSGSYSGIVSGIEWATTNGMDVINMSLGGASGSTAMKQAVDNAYAKGVVVVAAAGNSGSSGNTNTIGYPAKYDSVIAVGAVDSNSNRASFSSVGAELEVMAPGAGVYSTYPTNTYATLNGTSMASPHVAGAAALILSKHPNLSASQVRNRLSSTATYLGSSFYYGKGLINVEAAAQ
On to B2, for which the “Aminopeptidase M activity released by protease digestion, Met-pNA” value in assay [3] (5 μg protease/0.1 mg PHP/ml) is listed as 0.06 nmoles/min/5 μl high speed supernatant; in assay [3] (50 μg protease/0.1 mg PHP/ml), 0.10 nmoles/min/5 μl high speed supernatant; in assay [3] (500 μg protease/0.1 mg PHP/ml) it was 0.35 nmoles/min/5 μl high speed supernatant; in assay [3] (1000 μg protease/0.1 mg PHP/ml) it was 0.66 nmoles/min/5 μl high speed supernatant; in assay [3] (2000 μg protease/0.1 mg PHP/ml), 0.95 nmoles/min/5 μl high speed supernatant.
